# Values joined by “and” are separate entries in the source; they are usually repeats but may differ in a detail not shown here. Equal values may be shown once.
# Tested on: intragastric pH
# Assay: 24-h intragastric pH monitoring after single intravenous dexlansoprazole in healthy Chinese subjects
# Format: in vivo, human
# Protocol: Dexlansoprazole injection (30 mg per vial) used in the PK and PD study was manufactured by Nanjing Yoko Pharma Co., Ltd. (Nanjing, China). Subjects received an intravenous infusion of 20 or 30 mg dexlansoprazole injection in sterile saline solution (100 mL/h, 60 min). The study drug was administrated with an infusing pump (SA213, Lifepum, Beijing, China) and given through an intravenous catheter in the antecubital vein opposite to the one from which blood samples were taken.
# An ambulatory pH recorder (Orion II, MMS, USA) with a disposable pH catheter (VersaFlex, MMS, USA) was used to monitor intragastric pH. The electrode was placed in water for at least 10 min and then calibrated using standard buffer solutions (pH 1.07 and 7.01) before intubation. Both calibration and intubation processes were conducted under the guidance of MMS Virtual Instructor Program. The catheter, trans nasally placed 10 cm under the lower esophageal sphincter, was identified by a sharp decrease in pH (Wang et al., [2010], [2011]). Subjects were intubated on baseline and the day of dosing at about 7:30 a.m., and the intragastric pH data were recorded continuously for 24 h from 8:00 a.m. Intragastric pH was sampled every second, and the data were stored in a MMS Database program (MMS, USA). The PD parameters including Median (pH), Mean (pH), TpH≥3 (%), TpH≥4 (%), TpH≥6 (%), TpH≥6, and AUC^pH−t were analyzed by the MMS Database program.
# Median (pH) and mean (pH) were well-investigated in most studies, and the percentage time of pH ≥ 4 (or pH ≥ 4 holding time ratio) was the benchmark for predicting clinical efficacy of PPIs in treating acid-related diseases (Metz et al., [2009]). Novel parameter TpH≥6 (time to first gastric pH ≥ 6, min) and AUCτ 1-τ 2pH-t (area under pH-time curve from τ1 to τ2, pH·s) were defined to evaluate the velocity and extent of pharmacodynamics with more accuracy. All parameters were calculated and compared according to time periods of 0–24, 0–4, 4–10, 10–14, and 14–24 h post dosing.
# The parameter AUCτ 1-τ 2pH-t was calculated as follows:
# Where t represented the time duration measured by seconds, AUCτ 1-τ 210-t was the area between the pH line = 10 and the pH-time curve, which was generated by the MMS software.
# Baseline-adjusted PD parameters were calculated as follows: for example, ΔAUC^pH−t = AUC^pH−t − AUC^pH−tbaseline, ΔMean (pH) = Mean (pH) − Mean (pH)^baseline, and ΔMedian (pH) = Median (pH) − Median (pH)^baseline.
structure (smiles),measurement,setting,value
Cc1c(OCC(F)(F)F)ccnc1C[S@@+]([O-])c1nc2ccccc2[nH]1 [dexlansoprazole],time to first gastric pH ≥ 6 (TpH≥6),20 mg group,76 (± 29) min and 76 ± 29 min
same,Mean (pH),"20 mg iv, 0–4 h",4.3 ± 1.5 pH
same,Median (pH),"20 mg iv, 0–4 h",4.6 ± 2.1 pH
same,TpH≥3(%),"20 mg iv, 0–4 h",57.5 ± 22.1 %
same,TpH≥4(%),"20 mg iv, 0–4 h",46.5 ± 26.3 %
same,TpH≥6(%),"20 mg iv, 0–4 h",33.2 ± 29.4 %
same,ΔMean (pH),"20 mg iv, 0–4 h",2.1 ± 1.1 pH
same,ΔMedian (pH),"20 mg iv, 0–4 h",2.5 ± 1.9 pH
same,ΔTpH≥3(%),"20 mg iv, 0–4 h",47.1 ± 20.6%
same,ΔTpH≥4 (%),"20 mg iv, 0–4 h",39.0 ± 22.3 %
same,ΔTpH≥6(%),"20 mg iv, 0–4 h",27.6 ± 24.2 %
same,Mean (pH),"20 mg iv, 0–24 h",4.9 ± 1.2 pH
same,Median (pH),"20 mg iv, 0–24 h",4.9 ± 1.5 pH
same,TpH≥3(%),"20 mg iv, 0–24 h",68.5 ± 20.9 %
same,TpH≥4(%),"20 mg iv, 0–24 h",60.4 ± 22.2 %
same,TpH≥6(%),"20 mg iv, 0–24 h",40.1 ± 21.3 %
same,ΔMean (pH),"20 mg iv, 0–24 h",2.4 ± 1.0 pH
same,ΔMedian (pH),"20 mg iv, 0–24 h",3.1 ± 1.5 pH
same,ΔTpH≥3(%),"20 mg iv, 0–24 h",44.5 ± 19.0 %
same,ΔTpH≥4 (%),"20 mg iv, 0–24 h",45.0 ± 20.7 %
same,ΔTpH≥6(%),"20 mg iv, 0–24 h",33.7 ± 18.8 %
same,Mean (pH),"20 mg iv, 4–10 h",6.2 ± 1.4 pH
same,Median (pH),"20 mg iv, 4–10 h",6.3 ± 1.6 pH
same,TpH≥3(%),"20 mg iv, 4–10 h",89.4 ± 23.1%
same,TpH≥4(%),"20 mg iv, 4–10 h",89.0 ± 22.1%
same,TpH≥6(%),"20 mg iv, 4–10 h",64.1 ± 31.0 %
same,ΔMean (pH),"20 mg iv, 4–10 h",3.3 ± 1.4 pH
same,ΔMedian (pH),"20 mg iv, 4–10 h",3.6 ± 1.7 pH
same,ΔTpH≥3(%),"20 mg iv, 4–10 h",51.8 ± 29.6%
same,ΔTpH≥4 (%),"20 mg iv, 4–10 h",65.8 ± 26.9%
same,ΔTpH≥6(%),"20 mg iv, 4–10 h",54.9 ± 32.2 %
same,Mean (pH),"20 mg iv, 10–14 h",6.5 ± 1.6 pH
same,Median (pH),"20 mg iv, 10–14 h",6.6 ± 1.6 pH
same,TpH≥3(%),"20 mg iv, 10–14 h",92.7 ± 18.1%
same,TpH≥4(%),"20 mg iv, 10–14 h",88.4 ± 22.7%
same,TpH≥6(%),"20 mg iv, 10–14 h",70.9 ± 35.5%
same,ΔMean (pH),"20 mg iv, 10–14 h",3.3 ± 1.4 pH
same,ΔMedian (pH),"20 mg iv, 10–14 h",3.7 ± 1.5 pH
same,ΔTpH≥3(%),"20 mg iv, 10–14 h",43.8 ± 25.3%
same,ΔTpH≥4 (%),"20 mg iv, 10–14 h",55.5 ± 26.0%
same,ΔTpH≥6(%),"20 mg iv, 10–14 h",63.7 ± 34.3%
same,Mean (pH),"20 mg iv, 14–24 h",3.6 ± 1.3 pH
same,Median (pH),"20 mg iv, 14–24 h",3.2 ± 1.4 pH
same,TpH≥3(%),"20 mg iv, 14–24 h",48.7 ± 30.8 %
same,TpH≥4(%),"20 mg iv, 14–24 h",37.6 ± 31.3 %
same,TpH≥6(%),"20 mg iv, 14–24 h",16.3 ± 19.3 %
same,ΔMean (pH),"20 mg iv, 14–24 h",1.6 ± 1.1 pH
same,ΔMedian (pH),"20 mg iv, 14–24 h",1.5 ± 1.3 pH
same,ΔTpH≥3(%),"20 mg iv, 14–24 h",38.8 ± 27.8 %
same,ΔTpH≥4 (%),"20 mg iv, 14–24 h",31.2 ± 28.2 %
same,ΔTpH≥6(%),"20 mg iv, 14–24 h",12.0 ± 14.0 %
same,time to first gastric pH ≥ 6 (TpH≥6),30 mg group,58 (± 25) min and 58 ± 25 min
same,Mean (pH),"30 mg iv, 0–4 h",5.5 ± 1.5 pH
same,Median (pH),"30 mg iv, 0–4 h",6.1 ± 2.0 pH
same,TpH≥3(%),"30 mg iv, 0–4 h",72.3 ± 20.8%
same,TpH≥4(%),"30 mg iv, 0–4 h",66.5 ± 23.4%
same,TpH≥6(%),"30 mg iv, 0–4 h",54.6 ± 29.2%
same,ΔMean (pH),"30 mg iv, 0–4 h",3.3 ± 1.1 pH
same,ΔMedian (pH),"30 mg iv, 0–4 h",4.1 ± 1.9 pH
same,ΔTpH≥3(%),"30 mg iv, 0–4 h",57.5 ± 22.2%
same,ΔTpH≥4 (%),"30 mg iv, 0–4 h",56.6 ± 19.6%
same,ΔTpH≥6(%),"30 mg iv, 0–4 h",50.7 ± 26.1%
same,Mean (pH),"30 mg iv, 0–24 h",6.1 ± 1.2 pH
same,Median (pH),"30 mg iv, 0–24 h",6.4 ± 1.4 pH
same,TpH≥3(%),"30 mg iv, 0–24 h",85.1 ± 15.7%
same,TpH≥4(%),"30 mg iv, 0–24 h",79.8 ± 19.0%
same,TpH≥6(%),"30 mg iv, 0–24 h",64.2 ± 21.0%
same,ΔMean (pH),"30 mg iv, 0–24 h",3.4 ± 1.1 pH
same,ΔMedian (pH),"30 mg iv, 0–24 h",4.3 ± 1.3 pH
same,ΔTpH≥3(%),"30 mg iv, 0–24 h",58.6 ± 18.5%
same,ΔTpH≥4 (%),"30 mg iv, 0–24 h",62.8 ± 20.3%
same,ΔTpH≥6(%),"30 mg iv, 0–24 h",56.6 ± 18.8%
same,Mean (pH),"30 mg iv, 4–10 h",6.9 ± 1.0 pH
same,Median (pH),"30 mg iv, 4–10 h",7.1 ± 0.9 pH
same,TpH≥3(%),"30 mg iv, 4–10 h",96.8 ± 7.6%
same,TpH≥4(%),"30 mg iv, 4–10 h",94.5 ± 11.9%
same,TpH≥6(%),"30 mg iv, 4–10 h",83.2 ± 22.3%
same,ΔMean (pH),"30 mg iv, 4–10 h",4.2 ± 1.2 pH
same,ΔMedian (pH),"30 mg iv, 4–10 h",4.6 ± 1.2 pH
same,ΔTpH≥3(%),"30 mg iv, 4–10 h",60.4 ± 21.3%
same,ΔTpH≥4 (%),"30 mg iv, 4–10 h",75.7 ± 19.2%
same,ΔTpH≥6(%),"30 mg iv, 4–10 h",80.3 ± 22.3%
same,Mean (pH),"30 mg iv, 10–14 h",7.2 ± 1.2 pH
same,Median (pH),"30 mg iv, 10–14 h",7.3 ± 1.3 pH
same,TpH≥3(%),"30 mg iv, 10–14 h",96.8 ± 9.5%
same,TpH≥4(%),"30 mg iv, 10–14 h",95.0 ± 12.9%
same,TpH≥6(%),"30 mg iv, 10–14 h",84.5 ± 24.3%
same,ΔMean (pH),"30 mg iv, 10–14 h",4.2 ± 1.5 pH
same,ΔMedian (pH),"30 mg iv, 10–14 h",4.5 ± 1.7 pH
same,ΔTpH≥3(%),"30 mg iv, 10–14 h",54.1 ± 28.5%
same,ΔTpH≥4 (%),"30 mg iv, 10–14 h",70.6 ± 26.4%
same,ΔTpH≥6(%),"30 mg iv, 10–14 h",82.1 ± 23.6%
same,Mean (pH),"30 mg iv, 14–24 h",5.5 ± 1.5 pH
same,Median (pH),"30 mg iv, 14–24 h",5.3 ± 1.9 pH
same,TpH≥3(%),"30 mg iv, 14–24 h",78.9 ± 27.7%
same,TpH≥4(%),"30 mg iv, 14–24 h",70.6 ± 31.1%

# From paper PMC5614982, “Impact of Gastric H^+/K^+-ATPase rs2733743 on the Intragastric pH-Values of Dexlansoprazole Injection in Chinese Subjects” (Frontiers in Pharmacology, 2017)
